Reference: BindingDB's records for PubMed 9686407 (Sri International, 1998)
Structures can show the parent of a compound that is named as a salt.

Legend:
D(1A) dopamine receptor = D(1A) dopamine receptor (Homo sapiens, UniProt P21728)
[1] = target: T1, 5-hydroxytryptamine receptor 1A (Homo sapiens, UniProt P08908)
T1 sequence (P08908 whole entry): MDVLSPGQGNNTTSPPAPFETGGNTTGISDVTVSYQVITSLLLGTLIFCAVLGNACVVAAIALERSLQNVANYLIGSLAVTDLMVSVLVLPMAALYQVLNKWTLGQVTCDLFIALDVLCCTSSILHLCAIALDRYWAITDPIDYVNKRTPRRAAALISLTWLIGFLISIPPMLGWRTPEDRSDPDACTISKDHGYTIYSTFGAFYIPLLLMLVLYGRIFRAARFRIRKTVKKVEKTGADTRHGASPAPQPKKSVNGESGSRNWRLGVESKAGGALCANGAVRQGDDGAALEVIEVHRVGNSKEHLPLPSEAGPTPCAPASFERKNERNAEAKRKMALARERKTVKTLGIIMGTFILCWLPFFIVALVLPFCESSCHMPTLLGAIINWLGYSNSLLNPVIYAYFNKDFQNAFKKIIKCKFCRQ

[2] = target: 5-hydroxytryptamine receptor 2A (Rattus norvegicus, UniProt P14842)
[3] = target: T2, 5-hydroxytryptamine receptor 2C (Rattus norvegicus, UniProt P08909)
T2 sequence (P08909 whole entry): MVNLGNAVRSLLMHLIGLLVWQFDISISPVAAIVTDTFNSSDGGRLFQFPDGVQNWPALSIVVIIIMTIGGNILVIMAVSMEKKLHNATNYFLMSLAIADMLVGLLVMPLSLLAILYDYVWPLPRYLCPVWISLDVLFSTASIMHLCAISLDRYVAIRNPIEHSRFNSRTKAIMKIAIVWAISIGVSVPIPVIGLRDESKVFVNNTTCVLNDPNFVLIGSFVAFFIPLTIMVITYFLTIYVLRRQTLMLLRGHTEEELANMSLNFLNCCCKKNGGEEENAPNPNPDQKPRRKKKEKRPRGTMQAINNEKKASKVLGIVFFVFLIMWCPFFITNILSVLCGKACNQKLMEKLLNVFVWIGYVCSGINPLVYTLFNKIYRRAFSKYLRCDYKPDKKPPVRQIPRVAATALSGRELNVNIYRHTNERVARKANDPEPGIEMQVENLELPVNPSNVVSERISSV

[4] = target: T3, 5-hydroxytryptamine receptor 3A (Mus musculus, UniProt P23979)
T3 sequence (P23979 whole entry): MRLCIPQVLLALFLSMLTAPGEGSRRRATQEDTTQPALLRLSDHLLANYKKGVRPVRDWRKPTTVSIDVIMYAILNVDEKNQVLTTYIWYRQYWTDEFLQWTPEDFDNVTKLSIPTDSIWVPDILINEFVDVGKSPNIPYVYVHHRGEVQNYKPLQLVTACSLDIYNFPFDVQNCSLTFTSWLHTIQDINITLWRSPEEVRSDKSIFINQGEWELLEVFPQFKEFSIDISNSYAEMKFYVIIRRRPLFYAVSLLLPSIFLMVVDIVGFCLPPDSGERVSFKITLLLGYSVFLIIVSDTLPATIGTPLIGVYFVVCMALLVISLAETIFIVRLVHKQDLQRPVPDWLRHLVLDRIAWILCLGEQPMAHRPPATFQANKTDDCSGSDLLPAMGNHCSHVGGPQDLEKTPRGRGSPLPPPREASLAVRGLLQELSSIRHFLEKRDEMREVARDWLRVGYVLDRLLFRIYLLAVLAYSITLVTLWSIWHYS

Chain of D(1A) dopamine receptor (P21728 whole entry): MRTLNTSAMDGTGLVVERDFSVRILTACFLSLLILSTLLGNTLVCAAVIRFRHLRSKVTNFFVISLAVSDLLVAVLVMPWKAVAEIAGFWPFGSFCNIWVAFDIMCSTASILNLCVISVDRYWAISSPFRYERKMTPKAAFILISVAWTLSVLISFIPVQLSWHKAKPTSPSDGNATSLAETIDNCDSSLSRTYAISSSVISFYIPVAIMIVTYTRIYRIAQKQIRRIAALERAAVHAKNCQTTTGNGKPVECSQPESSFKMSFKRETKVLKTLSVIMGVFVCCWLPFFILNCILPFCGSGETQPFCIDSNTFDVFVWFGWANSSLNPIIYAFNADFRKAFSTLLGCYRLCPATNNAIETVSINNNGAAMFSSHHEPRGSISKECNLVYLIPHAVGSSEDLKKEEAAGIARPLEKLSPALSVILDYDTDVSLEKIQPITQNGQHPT
Chain of 5-hydroxytryptamine receptor 2A (P14842 whole entry): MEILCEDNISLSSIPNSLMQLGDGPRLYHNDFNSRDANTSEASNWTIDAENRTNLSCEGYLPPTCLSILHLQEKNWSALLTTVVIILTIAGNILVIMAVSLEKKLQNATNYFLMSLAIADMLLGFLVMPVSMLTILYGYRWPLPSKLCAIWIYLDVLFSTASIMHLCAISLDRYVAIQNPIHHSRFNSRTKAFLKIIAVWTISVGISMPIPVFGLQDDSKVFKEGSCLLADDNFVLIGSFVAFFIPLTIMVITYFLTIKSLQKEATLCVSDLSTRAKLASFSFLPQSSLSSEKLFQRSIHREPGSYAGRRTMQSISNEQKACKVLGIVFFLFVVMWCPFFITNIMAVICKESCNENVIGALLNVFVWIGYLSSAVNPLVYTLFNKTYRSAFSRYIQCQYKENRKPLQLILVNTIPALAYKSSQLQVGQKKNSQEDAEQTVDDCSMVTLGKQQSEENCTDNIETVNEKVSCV

| SMILES | Ki (D(1A) dopamine receptor) [µM] | Ki [1] [µM] | Ki [2] [µM] | Ki [3] [µM] | Ki [4] [µM] |
| --- | --- | --- | --- | --- | --- |
| COC(=O)[C@H]1[C@@H](OC(=O)c2ccccc2)C[C@@H]2CC[C@H]1N2C [Cocaine (-)] | > 10 | > 10 | > 10 | > 10 | > 10 |
| C#CCN(C)[C@H](C)Cc1ccccc1 [US8633208, Deprenyl] | > 10 | > 10 | 5.64 | > 10 | > 10 |
| c1ccc2c(c1)OCC(C1=NCCN1)O2 (stereo unspecified) | > 10 | 0.662 | > 10 | > 10 | > 10 |
| CNCCCN1c2ccccc2CCc2ccccc21 [Desmethylimipramine] |  |  |  | 0.748 | 4.4 |
| CN1CCc2cc(Cl)c(O)cc2[C@@H](c2ccccc2)C1 [SCH 23390,R(+)] |  | 0.661 | 0.0122 | 0.051 | 3.91 |
| CN1CC(C(=O)N[C@]2(C)O[C@@]3(O)C4CCCN4C(=O)[C@H](Cc4ccccc4)N3C2=O)CC2c3cccc4[nH]cc(c34)CC21 (stereo partly drawn) [7-Methyl-4,6,6a,7,8,9,10,10a-octahydro-indolo[4,3-fg]quinoline-9-carboxylic acid ((2R,5S,10bS)-5-benzyl-10b-hydroxy-2-methyl-3,6-dioxo-octahydro-oxazolo[3,2-a]pyrrolo[2,1-c]pyrazin-2-yl)-amide] | 2.78 | 0.0015 | 0.038 | 0.298 | > 10 |
| CN(C)CCCN1c2ccccc2CCc2ccccc21 | > 10 | > 10 |  | 0.106 | 3.65 |
| Fc1ccc(C(OCCN2CCN(CCCc3ccccc3)CC2)c2ccc(F)cc2)cc1 [Vanoxerine] | > 10 | 4.68 | 0.161 | > 10 | > 10 |
| CN1Cc2c(N)cccc2[C@H](c2ccccc2)C1 [(+/-)-2-Methyl-4-phenyl-1,2,3,4-tetrahydro-isoquinolin-8-ylamine] | > 10 | 1.18 |  |  | > 10 |
| Oc1cc2c(cc1O)[C@@H](c1ccccc1)CNCC2 |  | 3.1 | 6.16 | > 10 | > 10 |
| OCCN1CCN(CCCN2c3ccccc3Sc3ccc(C(F)(F)F)cc32)CC1 [2-[4-[3-[2-(trifluoromethyl)phenothiazin-10-yl]propyl]piperazin-1-yl]ethanol;hydrochloride] |  |  |  |  | > 10 |
| CN1CCc2cccc3c2[C@H]1Cc1ccc(O)c(O)c1-3 [APOKYN] |  |  | 4.38 | 1.1 | > 10 |
| CN[C@@H](C)Cc1ccc2c(c1)OCO2 [MDMA, R(-)] | > 10 | > 10 | 3.91 |  | > 10 |
| C=CCN1CCc2cc(O)c(O)cc2C(c2ccccc2)C1 (stereo unspecified) |  | 2.11 | 2.7 | 3.04 |  |
| CCCN1CCC[C@@H]2Cc3n[nH]cc3C[C@H]21 [NSC_54562] |  | 1.71 | > 10 | > 10 | > 10 |
| Cc1nccn1CC1CCc2c(c3ccccc3n2C)C1=O (stereo unspecified) [NSC_68647] | > 10 | > 10 |  |  | 0.015 |
| CNc1cc(OC)c(C(=O)N[C@H]2CCN(Cc3ccccc3)[C@H]2C)cc1Cl [Nemonapride] |  |  | 0.058 | 3.12 | 0.526 |
| Cc1ccc(N(CC2=NCCN2)c2cccc(O)c2)cc1 [SMR000059054] |  |  | 0.222 | 0.459 | 4.29 |
| COc1ccccc1N1CCN(CCCCN2C(=O)c3ccccc3C2=O)CC1 [2-{4-[4-(2-Methoxy-phenyl)-piperazin-1-yl]-butyl}-isoindole-1,3-dione] | 4.51 |  | 0.549 | 4.12 | > 10 |
| Cc1nc2sccn2c(=O)c1CCN1CCC(=C(c2ccc(F)cc2)c2ccc(F)cc2)CC1 | 0.933 |  |  |  | > 10 |
| CN(C)CCCN1c2ccccc2Sc2ccc(Cl)cc21 [[3-(2-Chloro-phenothiazin-10-yl)-propyl]-dimethyl-amine(Chlorpromazine)] |  |  |  |  | 0.82 |

| SMILES | Ki (D(1A) dopamine receptor) [µM] | Ki [1] [µM] | Ki [2] [µM] | Ki [3] [µM] | Ki [4] [µM] |
| --- | --- | --- | --- | --- | --- |
| CN(C)C/C=C(/c1ccc(Br)cc1)c1cccnc1 [cis-[3-(4-Bromo-phenyl)-3-pyridin-3-yl-allyl]-dimethyl-amine;HCl] |  |  |  | 0.482 | > 10 |
| CCCN(CCC)C1CCc2cccc(O)c2C1 (stereo unspecified) | > 10 |  | > 10 |  | > 10 |
| CC(N)Cc1ccc2c(c1)OCO2 (stereo unspecified) | > 10 | > 10 |  |  | > 10 |
| O=C(c1ccc(F)cc1)C1CCN(CCn2c(=O)[nH]c3ccccc3c2=O)CC1 [3-(2-{4-[(4-fluorophenyl)carbonyl]piperidin-1-yl}ethyl)-1,2,3,4-tetrahydroquinazoline-2,4-dione] |  |  |  | 0.069 | > 10 |
| O=c1[nH]c2ccccc2n1C1CCN(CCCC(c2ccc(F)cc2)c2ccc(F)cc2)CC1 [1-(1-(4,4-bis(4-fluorophenyl)butyl)piperidin-4-yl)-1H-benzo[d]imidazol-2(3H)-one] |  |  | 0.049 | 5.79 | 3.29 |
| OCCN1CCN(CC/C=C2/c3ccccc3Sc3ccc(C(F)(F)F)cc32)CC1 [(cis) 2-{4-[3-(2-Trifluoromethyl-thioxanthen-9-ylidene)-propyl]-piperazin-1-yl}-ethanol(Flupentixol)] |  | 8.03 |  | 0.295 | > 10 |
| Oc1cc2c(c(Cl)c1O)CCNC[C@@H]2c1ccccc1 [(R)-6-Chloro-7,8-dihydroxy-1-phenyl-2,3,4,5-tetrahydro-1H-benzo[d]azepinium] |  | 5.52 | 3.08 | 1.51 |  |
| OCCN1CCN(CC/C=C2/c3ccccc3Sc3ccc(C(F)(F)F)cc32)CC1 [Fluphenthixol] |  |  | 0.013 |  |  |
| NC(Cc1ccc(O)c(O)c1)C(=O)O (stereo unspecified) [2-amino-3-(3,4-dihydroxyphenyl)propanoic acid] |  |  | > 10 | > 10 | > 10 |
| O=C(CCCN1CCC2(CC1)C(=O)NCN2c1ccccc1)c1ccc(F)cc1 [8-[4-(4-fluorophenyl)-4-oxidanylidene-butyl]-1-phenyl-1,3,8-triazaspiro[4.5]decan-4-one] |  |  |  |  | > 10 |
| CCN(CC)CCNC(=O)c1cc(Cl)c(N)cc1OC [4-amino-5-chloro-N-[2-(diethylamino)ethyl]-2-methoxy-benzamide;hydrochloride] | > 10 | > 10 |  | 3.86 | 0.353 |
| C=CCN1CCc2c(cc(O)c(O)c2Cl)C(c2ccccc2)C1 (racemic) [SKF 82958] |  | 1.78 | 1.29 | 4.63 | > 10 |
| c1ccc2nc(N3CCNCC3)ccc2c1 [2-Piperazin-1-yl-quinoline (Quipazine)] | > 10 |  | 0.092 | 0.653 | 0.0032 |
| N[C@@H]1C[C@H]1c1ccccc1 [Tranylcypromine,(+)] |  | 5.96 | > 10 | > 10 | > 10 |
| Cc1[nH]c2ccc(O)cc2c1CCN | > 10 |  | > 10 | 1.37 | 0.995 |
| COC(=O)[C@@H]1[C@H]2C[C@H]3c4[nH]c5ccccc5c4CCN3C[C@@H]2CC[C@@H]1O [yohimbic acid methyl ester] |  |  |  | > 10 |  |
| C[C@H](N)Cc1ccccc1 [beta-aminopropylbenzene] |  | 6.61 |  |  | > 10 |
| NCCc1ccc(O)c(O)c1 |  | 8.25 | > 10 | > 10 | > 10 |
| CCN1CCCC1CNC(=O)c1cc(S(N)(=O)=O)ccc1OC (stereo unspecified) [N-[(1-ethylpyrrolidin-2-yl)methyl]-2-methoxy-5-sulfamoylbenzamide] | > 10 | > 10 |  |  | > 10 |
| CC(C)(C)[C@]1(O)CCN2C[C@H]3c4ccccc4CCc4cccc(c43)[C@@H]2C1 |  | 0.528 | 0.0052 | 1.06 | > 10 |
